# ChEMBL document CHEMBL3885861, “Open TG-GATES”
# Species: Rattus norvegicus
# Test: Open TG-GATES - Regimen: Daily Repeat
# Type: toxicity, organism-based, Sprague-Dawley
# Parameters: regimen Daily Repeat, gender Male, age 6 weeks
# Conditions: in vivo, po, route gavage; for KIDNEY_L / KIDNEY_R / KIDNEY_TOTAL: tissue Kidney; for ALP / ALT / AST / BUN / CRE / Ca / Cl / DBIL / GLC / IP / K / LDH / Na / RALB / TBIL / TC / TG / TP / gamma-GTP / PL: tissue Plasma
# [1] = 200 mg/kg, 72 h, tissue Blood, dose level Middle, time 3 day
# [2] = 200 mg/kg, 72 h, dose level Middle, time 3 day
# [3] = 200 mg/kg, […], dose level Middle, time 7 day
# [4] = 200 mg/kg, […], dose level Middle, time 14 day
# [5] = 200 mg/kg, […], dose level Middle, time 28 day
# [6] = 200 mg/kg, […], tissue Blood, dose level Middle, time 7 day
# [7] = 200 mg/kg, […], tissue Blood, dose level Middle, time 14 day
# [8] = 200 mg/kg, […], tissue Blood, dose level Middle, time 28 day
# [9] = 600 mg/kg, 72 h, dose level High, time 3 day
# [10] = 600 mg/kg, 72 h, tissue Blood, dose level High, time 3 day
# [11] = 600 mg/kg, […], dose level High, time 7 day
# [12] = 600 mg/kg, […], dose level High, time 14 day
# [13] = 600 mg/kg, […], dose level High, time 28 day
# [14] = 600 mg/kg, […], tissue Blood, dose level High, time 7 day
# [15] = 600 mg/kg, […], tissue Blood, dose level High, time 14 day
# [16] = 600 mg/kg, […], tissue Blood, dose level High, time 28 day
smiles,measurement,setting,value
CC(=O)Nc1nnc(S(N)(=O)=O)s1 [ACETAZOLAMIDE],APTT,[1],19.2 s
same,Bas,[1],0%
same,Eos,[1],1.2%
same,Fbg,[1],313.4 mg/dL
same,Ht,[1],39.9%
same,MCH,[1],21.3 pg
same,MCHC,[1],34.1%
same,MCV,[1],62.6 fL
same,Mono,[1],3%
same,Neu,[1],18.6%
same,PT,[1],16.5 s
same,RBC,[1],637.6 x10_4/ul
same,Ret,[1],5.3%
same,KIDNEY_L,[2],1.1 g
same,KIDNEY_R,[2],1 g
same,KIDNEY_TOTAL,[2],2.1 g
same,ALP,[2],1836.6 IU/L
same,ALT,[2],45.2 IU/L
same,AST,[2],64.2 IU/L
same,BUN,[2],20 mg/dL
same,CRE,[2],0.2 mg/dL
same,Ca,[2],10.8 mg/dL
same,Cl,[2],109.6 meq/L
same,DBIL,[2],0 mg/dL
same,GLC,[2],175.2 mg/dL
same,IP,[2],7.5 mg/dL
same,K,[2],4.1 meq/L
same,LDH,[2],187.8 IU/L
same,Na,[2],142.4 meq/L
same,RALB,[2],3 g/dL
same,TBIL,[2],0.008 mg/dL
same,TC,[2],83.2 mg/dL
same,TG,[2],81.6 mg/dL
same,TP,[2],5.3 g/dL
same,gamma-GTP,[2],1.4 IU/L
same,TERMINAL_BW,[3],243.9 g
same,TERMINAL_BW,[4],281.3 g
same,TERMINAL_BW,[5],340.5 g
same,APTT,[6],20 s
same,Bas,[6],0%
same,Eos,[6],1%
same,Fbg,[6],338 mg/dL
same,Ht,[6],39%
same,MCH,[6],21.1 pg
same,MCHC,[6],35.4%
same,MCV,[6],59.7 fL
same,Mono,[6],2.6%
same,RBC,[6],653.4 x10_4/ul
same,Ret,[6],5.9%
same,APTT,[7],22 s
same,Bas,[7],0%
same,Eos,[7],0.6%
same,Fbg,[7],302.4 mg/dL
same,Ht,[7],40.2%
same,MCH,[7],20.4 pg
same,MCHC,[7],35.2%
same,MCV,[7],57.9 fL
same,Mono,[7],1.4%
same,Neu,[7],17.6%
same,RBC,[7],696.2 x10_4/ul
same,Ret,[7],4.5%
same,APTT,[8],24.7 s
same,Bas,[8],0%
same,Eos,[8],0.8%
same,Fbg,[8],312.2 mg/dL
same,Ht,[8],42%
same,MCH,[8],19.3 pg
same,MCHC,[8],34.7%
same,Mono,[8],1.8%
same,PT,[8],16.5 s
same,RBC,[8],757.6 x10_4/ul
same,Ret,[8],3%
same,KIDNEY_L,[3],1.1 g
same,KIDNEY_R,[3],1.1 g
same,KIDNEY_TOTAL,[3],2.2 g
same,KIDNEY_L,[4],1.2 g
same,KIDNEY_R,[4],1.2 g
same,KIDNEY_TOTAL,[4],2.5 g
same,KIDNEY_L,[5],1.4 g
same,KIDNEY_R,[5],1.4 g
same,KIDNEY_TOTAL,[5],2.8 g
same,ALP,[3],1704.2 IU/L
same,ALT,[3],44 IU/L
same,AST,[3],67.4 IU/L
same,BUN,[3],20.4 mg/dL
same,CRE,[3],0.2 mg/dL
same,Ca,[3],10.7 mg/dL
same,Cl,[3],110.8 meq/L
same,DBIL,[3],0 mg/dL
same,GLC,[3],186.8 mg/dL
same,IP,[3],6.7 mg/dL
same,K,[3],4.2 meq/L
same,LDH,[3],179 IU/L
same,Na,[3],143.6 meq/L
same,PL,[3],140.2 mg/dL
same,RALB,[3],2.9 g/dL
same,TBIL,[3],0 mg/dL
same,TC,[3],69.8 mg/dL
same,TG,[3],133.8 mg/dL
same,TP,[3],5.1 g/dL
same,gamma-GTP,[3],1.4 IU/L
same,ALP,[4],1326.4 IU/L
same,ALT,[4],42 IU/L
same,AST,[4],65.6 IU/L
same,BUN,[4],19 mg/dL
same,CRE,[4],0.2 mg/dL
same,Ca,[4],10.6 mg/dL
same,Cl,[4],107.4 meq/L
same,DBIL,[4],0 mg/dL
same,GLC,[4],184.4 mg/dL
same,IP,[4],6.7 mg/dL
same,K,[4],3.7 meq/L
same,LDH,[4],139 IU/L
same,Na,[4],143.8 meq/L
same,PL,[4],142.4 mg/dL
same,RALB,[4],3.1 g/dL
same,TBIL,[4],0.002 mg/dL
same,TC,[4],69.8 mg/dL
same,TP,[4],5.6 g/dL
same,gamma-GTP,[4],2 IU/L
same,ALP,[5],1449.8 IU/L
same,ALT,[5],44.2 IU/L
same,AST,[5],69 IU/L
same,BUN,[5],17.2 mg/dL
same,CRE,[5],0.2 mg/dL
same,Cl,[5],108.2 meq/L
same,DBIL,[5],0 mg/dL
same,GLC,[5],179.6 mg/dL
same,IP,[5],5.4 mg/dL
same,K,[5],3.8 meq/L
same,LDH,[5],136.8 IU/L
same,Na,[5],141.8 meq/L
same,PL,[5],159 mg/dL
same,RALB,[5],3.2 g/dL
same,TBIL,[5],0.002 mg/dL
same,TC,[5],81.4 mg/dL
same,TG,[5],136.4 mg/dL
same,TP,[5],6 g/dL
same,gamma-GTP,[5],2.4 IU/L
same,TERMINAL_BW,[9],195.4 g
same,APTT,[10],18.7 s
same,Bas,[10],0%
same,Eos,[10],1%
same,Fbg,[10],285 mg/dL
same,Ht,[10],41.9%
same,Lym,[10],86%
same,MCH,[10],20.5 pg
same,MCHC,[10],34.2%
same,MCV,[10],59.9 fL
same,Mono,[10],2.4%
same,Neu,[10],9.6%
same,PT,[10],17.7 s
same,RBC,[10],699.4 x10_4/ul
same,Ret,[10],3.9%
same,KIDNEY_L,[9],0.9 g
same,KIDNEY_R,[9],0.9 g
same,KIDNEY_TOTAL,[9],1.8 g
same,ALP,[9],1356 IU/L
same,ALT,[9],43 IU/L
same,AST,[9],57.8 IU/L
same,BUN,[9],22.6 mg/dL
same,CRE,[9],0.2 mg/dL
same,Ca,[9],10.8 mg/dL
same,Cl,[9],116 meq/L
same,DBIL,[9],0 mg/dL
same,GLC,[9],186.6 mg/dL
same,IP,[9],7.9 mg/dL
same,K,[9],4.1 meq/L
same,LDH,[9],211.2 IU/L
same,Na,[9],142.6 meq/L
same,PL,[9],151.8 mg/dL
same,RALB,[9],3 g/dL
same,TBIL,[9],0.006 mg/dL
same,TC,[9],84 mg/dL
same,TG,[9],90.6 mg/dL
same,TP,[9],5.4 g/dL
same,gamma-GTP,[9],1 IU/L
same,TERMINAL_BW,[11],226.8 g
same,TERMINAL_BW,[12],263.9 g
same,TERMINAL_BW,[13],330.6 g
same,APTT,[14],19.2 s
same,Bas,[14],0%
same,Eos,[14],1%
same,Fbg,[14],314.4 mg/dL
same,Ht,[14],39.9%
same,MCH,[14],21 pg
same,MCHC,[14],34.5%
same,MCV,[14],60.9 fL
same,Mono,[14],2.4%
same,RBC,[14],656.2 x10_4/ul
same,Ret,[14],6%
same,APTT,[15],21.5 s
same,Bas,[15],0%
same,Eos,[15],0.8%
same,Fbg,[15],315.6 mg/dL
same,MCH,[15],20.4 pg
same,MCHC,[15],35.3%
same,MCV,[15],57.8 fL
same,Mono,[15],2.4%
same,Neu,[15],23.6%
same,PT,[15],16.7 s
same,RBC,[15],708 x10_4/ul
same,Ret,[15],5.3%
same,APTT,[16],23 s
same,Bas,[16],0%
same,Eos,[16],1%
same,Fbg,[16],306.4 mg/dL
same,Ht,[16],42.1%
same,MCH,[16],19.4 pg
same,MCHC,[16],34%
same,MCV,[16],57 fL
same,Mono,[16],2.8%
same,PT,[16],16.9 s
same,RBC,[16],739.2 x10_4/ul
same,Ret,[16],3.4%
same,KIDNEY_L,[11],1.1 g
same,KIDNEY_R,[11],1.1 g
same,KIDNEY_TOTAL,[11],2.1 g
same,KIDNEY_L,[12],1.2 g
same,KIDNEY_R,[12],1.3 g
same,KIDNEY_TOTAL,[12],2.5 g
same,KIDNEY_L,[13],1.4 g
same,KIDNEY_R,[13],1.4 g
same,KIDNEY_TOTAL,[13],2.8 g
same,ALP,[11],1613 IU/L
same,ALT,[11],46 IU/L
same,AST,[11],71.6 IU/L
same,BUN,[11],20 mg/dL
same,CRE,[11],0.2 mg/dL
same,Ca,[11],10.9 mg/dL
same,Cl,[11],114.2 meq/L
same,DBIL,[11],0 mg/dL
same,GLC,[11],179.8 mg/dL
same,IP,[11],7.2 mg/dL
same,K,[11],4.2 meq/L
same,LDH,[11],162.8 IU/L
same,Na,[11],144.6 meq/L
same,PL,[11],167.4 mg/dL
same,RALB,[11],3 g/dL
same,TBIL,[11],0 mg/dL
same,TC,[11],84.2 mg/dL
same,TG,[11],124 mg/dL
same,TP,[11],5.4 g/dL
same,gamma-GTP,[11],1.2 IU/L
same,ALP,[12],1257.6 IU/L
same,ALT,[12],40.4 IU/L
same,AST,[12],61.4 IU/L
same,BUN,[12],18.8 mg/dL
same,CRE,[12],0.2 mg/dL
same,Ca,[12],10.5 mg/dL
same,Cl,[12],110.6 meq/L
same,DBIL,[12],0 mg/dL
same,GLC,[12],181.8 mg/dL
same,IP,[12],7 mg/dL
same,K,[12],3.7 meq/L
same,LDH,[12],141.6 IU/L
same,Na,[12],143.4 meq/L
same,PL,[12],152.2 mg/dL
same,RALB,[12],3 g/dL
same,TBIL,[12],0.004 mg/dL
same,TC,[12],76.2 mg/dL
same,TG,[12],130.4 mg/dL
same,TP,[12],5.5 g/dL
same,gamma-GTP,[12],1.8 IU/L
same,ALP,[13],1120.2 IU/L
same,AST,[13],66.4 IU/L
same,BUN,[13],18.4 mg/dL
same,CRE,[13],0.2 mg/dL
same,Ca,[13],10.2 mg/dL
same,Cl,[13],111.2 meq/L
same,DBIL,[13],0 mg/dL
same,GLC,[13],178 mg/dL
same,IP,[13],5.6 mg/dL
same,K,[13],3.8 meq/L
same,LDH,[13],149 IU/L
same,Na,[13],142.6 meq/L
same,PL,[13],136.2 mg/dL
same,RALB,[13],3.2 g/dL
same,TBIL,[13],0.01 mg/dL
same,TC,[13],71.6 mg/dL
same,TG,[13],115.4 mg/dL
same,TP,[13],5.6 g/dL
same,gamma-GTP,[13],2.2 IU/L
